The values below come from patent US11161839B2, “2-quinolone derived inhibitors of BCL6” (Cancer Research Technology Limited, priority 2017, dated 2021).

Molecules are shown by their SMILES. pIC50: −log10 of the molar value. Where two headings read alike, the source gives them in different places.

The pIC50 is −log10 of the IC50, conventionally taken in molar units.

Assay [1] addresses human BCL6 BTB domain (Trx-6xHis-BCL6) (Homo sapiens (Human), UniProt P41182). The assay can be described thus: HTRF in vitro assay (BCL6 BTB domain / BCOR-AF633 peptide). In kind it is binding. The following applies: further generated data (Table 1b), 1 nM Trx-6xHis-BCL6, 0.5 nM anti-6xHis-Terbium cryptate.
Protocol: The % inhibition at each concentration was calculated by normalising FRET ratio to the appropriate high (DMSO with all reagents) and low (DMSO without BCL6) controls.
Assay [2] deals with BCL6-NCOR2(SMRT) corepressor protein-protein interaction (Homo sapiens (Human), UniProt P41182). The assay can be described thus: NanoBRET cell assay in transfected HEK293T cells. In kind it is cell-based. The following applies: for IC50: further generated data (Table 2b), HEK293T cells, 6 hr, read-out: NanoBRET cell pIC50 (converted). (In general: Bioluminescence resonance energy transfer reports proximity on the nanometre scale.)

As to `C[C@@H](Nc1cc(=O)n(C)c2ccc(Nc3cc(C(=O)N4CCC4)nc(Cl)c3C#N)cc12)C1CC1` [Example 8c, (R)-6-(azetidine-1-carbonyl)-2-chloro-4-((4-((1-cyclopropylethyl)amino)-1-methyl-2-oxo-1,2-dihydroquinolin-6-yl)amino)nicotinonitrile], the “HTRF pIC50” value in assay [1] is 7.02. Besides, in assay [2], the IC50 is 501 nM.
In the case of `COC[C@@H]1CCCN1C(=O)c1cc(Nc2ccc3c(c2)c(NC(C)(C)c2ncccn2)cc(=O)n3C)c(C#N)c(Cl)n1` [Example 8e], the values for the IC50 in assay [1] (read-out: HTRF pIC50 (converted)) and in assay [2] were 28.2 nM and 676 nM, respectively.
Consider `CC(Nc1cc(=O)n(C)c2ccc(Nc3cc(C(=O)N4CC(C(F)(F)F)C4)nc(Cl)c3C#N)cc12)c1ncc(C2CC2)cn1` (stereo not drawn) [Example 8f, 2-chloro-4-((4-((1-(5-cyclopropylpyrimidin-2-yl)ethyl)amino)-1-methyl-2-oxo-1,2-dihydroquinolin-6-yl)amino)-6-(3-(trifluoromethyl)azetidine-1-carbonyl)nicotinonitrile], for which the “HTRF pIC50” value in assay [1] came out at 6.99. Also, the IC50 in assay [2] was 5250 nM.
Take `Cn1c(=O)cc(NC(C)(C)c2ncc(C3CC3)cn2)c2cc(Nc3ccnc(Cl)c3C#N)ccc21` [Example 10a, 2-chloro-4-((4-((2-(5-cyclopropylpyrimidin-2-yl)propan-2-yl)amino)-1-methyl-2-oxo-1,2-dihydroquinolin-6-yl)amino)nicotinonitrile]: the “HTRF pIC50” value in assay [1] worked out at 7.53. The IC50 in assay [2] is 513 nM.
As to `Cc1cnc(C(C)Nc2cc(=O)n(C)c3ccc(Nc4ccnc(Cl)c4C#N)cc23)nc1` (stereo not drawn) [Example 10f], the “HTRF pIC50” value in assay [1] is 7.12. For the same compound, the pIC50 in assay [2] is 5.97.
On to `CC(Nc1nc(=O)n(C)c2ccc(Nc3ccnc(Cl)c3C#N)cc12)c1ncccn1` (stereo not drawn) [Example 10h], for which the “HTRF pIC50” value in assay [1] is listed as 7.10. Moreover, the IC50 in assay [2] was 8910 nM.
For `CNC(=O)c1cc(Nc2ccc3c(c2)c(N[C@H](C)C2CC2)cc(=O)n3C)c(C#N)c(Cl)n1` [Example 10i, (R)-6-chloro-5-cyano-4-((4-((1-cyclopropylethyl)amino)-1-methyl-2-oxo-1,2-dihydroquinolin-6-yl)amino)-N-methylpicolinamide] the same measures were 6.96 and 1780 nM.
For `CC(Nc1cc(=O)n(C)c2ccc(Nc3ccnc(Cl)c3C#N)cc12)c1ncc(Br)cn1` (stereo not drawn) [Example 10j, 4-((4-((1-(5-bromopyrimidin-2-yl)ethyl)amino)-1-methyl-2-oxo-1,2-dihydroquinolin-6-yl)amino)-2-chloronicotinonitrile] the same measures were 6.92 and 1230 nM.
For `CC(Nc1cc(=O)n(C)c2ccc(Nc3ccnc(Cl)c3C#N)cc12)c1ncc(N2C[C@H](C)C[C@H](C)C2)cn1` (stereo partly drawn) [Example 10k, 2-chloro-4-((4-((1-(5-((3R,5S)-3,5-dimethylpiperidin-1-yl)pyrimidin-2-yl)ethyl)amino)-1-methyl-2-oxo-1,2-dihydroquinolin-6-yl)amino)nicotinonitrile] the same measures were 6.82 and 1510 nM.
With `C[C@@H](Nc1nc(=O)n(C)c2ccc(Nc3ccnc(Cl)c3C#N)cc12)C1CC1` [Example 10m, (R)-2-chloro-4-((4-((1-cyclopropylethyl)amino)-1-methyl-2-oxo-1,2-dihydroquinazolin-6-yl)amino)nicotinonitrile], the “HTRF pIC50” value in assay [1] amounted to 6.66. The IC50 in assay [2] is 2750 nM.
For `C[C@@H](Nc1cc(=O)n(C)c2ccc(Nc3ccnc(Cl)c3C#N)cc12)C1CC1` [Example 10n, (R)-2-chloro-4-((4-((1-cyclopropylethyl)amino)-1-methyl-2-oxo-1,2-dihydroquinolin-6-yl)amino)nicotinonitrile] the same measures were 6.55 and 1290 nM.
In the case of `CC(C)(Nc1cc(=O)n(CC2CCCCC2)c2ccc(Nc3ccnc(Cl)c3C#N)cc12)c1ncccn1` [Example 10o, 2-chloro-4-((1-(cyclohexylmethyl)-2-oxo-4-((2-(pyrimidin-2-yl)propan-2-yl)amino)-1,2-dihydroquinolin-6-yl)amino)nicotinonitrile], the “HTRF pIC50” value in assay [1] was 6.50. In addition, the IC50 in assay [2] is 2290 nM.
For `Cn1c(=O)cc(NC(c2ncccn2)C2CC2)c2cc(Nc3ccnc(Cl)c3C#N)ccc21` (stereo not drawn) [Example 10p, 2-chloro-4-((4-((cyclopropyl(pyrimidin-2-yl)methyl)amino)-1-methyl-2-oxo-1,2-dihydroquinolin-6-yl)amino)nicotinonitrile] the same measures were 6.44 and 2340 nM.
For `CCOC(=O)c1cc(Nc2ccc3c(c2)c(NC(C)c2ncccn2)cc(=O)n3C)n2nccc2n1` (stereo not drawn) [Example 10q, ethyl 7-((1-methyl-2-oxo-4-((1-(pyrimidin-2-yl)ethyl)amino)-1,2-dihydroquinolin-6-yl)amino)pyrazolo[1,5-a]pyrimidine-5-carboxylate] the same measures were 6.44 and 2690 nM.
For `Cn1c(=O)cc(NC2(c3ncccn3)CC2)c2cc(Nc3ccnc(Cl)c3C#N)ccc21` [Example 10u, 2-chloro-4-((1-methyl-2-oxo-4-((1-(pyrimidin-2-yl)cyclopropyl)amino)-1,2-dihydroquinolin-6-yl)amino)nicotinonitrile] the same measures were 6.19 and 8710 nM.
Turning to `CC(Nc1cc(=O)n(C)c2ccc(Nc3ccnc(Cl)c3C#N)cc12)c1ncc(N2CCOCC2)cn1` (stereo not drawn) [Example 10x, 2-chloro-4-((1-methyl-4-((1-(5-morpholinopyrimidin-2-yl)ethyl)amino)-2-oxo-1,2-dihydroquinolin-6-yl)amino)nicotinonitrile], the “HTRF pIC50” value in assay [1] is reported as 7.56. Moreover, the IC50 in assay [2] was 1260 nM.
For `Cn1c(=O)cc(N[C@H](CO)C2CC2)c2cc(Nc3ccnc(Cl)c3C#N)ccc21` [Example 11a, (S)-2-chloro-4-((4-((1-cyclopropyl-2-hydroxyethyl)amino)-1-methyl-2-oxo-1,2-dihydroquinolin-6-yl)amino)nicotinonitrile], in assay [1], the “HTRF pIC50” value amounted to 6.78. Moreover, in assay [2], the IC50 was 3390 nM.
As to `Cn1c(=O)cc(NC(C)(C)c2ccccn2)c2cc(Nc3ccnc(Cl)c3C#N)ccc21` [Example 11b, 2-chloro-4-((1-methyl-2-oxo-4-((2-(pyridin-2-yl)propan-2-yl)amino)-1,2-dihydroquinolin-6-yl)amino)nicotinonitrile:formic acid (1:1)], in assay [1], the “HTRF pIC50” value was found to be 6.52. Also, the IC50 in assay [2] is 1290 nM.
`CC(Nc1cc(=O)n(C)c2ccc(Nc3ccnc(Cl)c3C#N)cc12)c1ccccn1` (stereo not drawn) [Example 11d, 2-chloro-4-((1-methyl-2-oxo-4-((1-(pyridin-2-yl)ethyl)amino)-1,2-dihydroquinolin-6-yl)amino)nicotinonitrile: formic acid (1:1)]: the “HTRF pIC50” value in assay [1] was found to be 6.34. Further, the IC50 in assay [2] was 4370 nM.
The matching figures for `COc1ncc(Cl)c(Nc2ccc3c(c2)c(N[C@H](C)C2CC2)cc(=O)n3C)n1` [Example 11e]: 6.20 and 3470 nM.
For `CC(Nc1cc(=O)n(CC2CC2)c2ccc(Nc3ccnc(Cl)c3C#N)cc12)c1ncccn1` (stereo not drawn) [Example 11h, 2-chloro-4-((1-(cyclopropylmethyl)-2-oxo-4-((1-(pyrimidin-2-yl)ethyl)amino)-1,2-dihydroquinolin-6-yl)amino)nicotinonitrile] the same measures were 6.65 and 2820 nM.
